According to US7989446B2, “4-amino 5-cyanopyrimidine derivatives” (Otsuka Pharmaceutical Co., Ltd., priority 2004, dated 2011):
Where a name gives a salt, the structure may show the parent alone.

Experiments:
[1] = system: Intraocular Pressure in Rabbit; test: Measuring test for intraocular pressure in rabbit; format: in vivo, Female New Zealand white rabbits; conditions: mean±standard error
Protocol: (3) Measuring Test for Intraocular Pressure in Rabbit
The test compounds were dissolved in 10 mM of phosphate buffer (pH 7.5) (hereinafter, referred to as “vehicle of ophthalmic preparation”), and they were instilled in a given concentration. In addition, the compounds insoluble in that concentration was used as a suspension. Female New Zealand white rabbits (KITAYAMA LABES Co., Ltd.) whose weights were 2.0-4.0 kg were used.
The measurement of the intraocular pressure was carried out using Pneumatonometer (Model 30 Classic, Mentor company) without anesthesia. In addition, before the measurement of the intraocular pressure, the surface anesthesia with 0.4% oxybuprocaine hydrochloride (“Benoxil” 0.4% ophthalmic solution, Santen Pharmaceutical Co., Ltd.) was carried out.
The animals whose intraocular pressure was stable before instillation were selected, and these animals were divided to every 4 animal in each one group, 50 μL of eye drops including each the test compound was administered to one-sided eye and vehicle was administered to contralateral eye as the control eye. The measurement of intraocular pressure was carried out before instillation and after 0.5, 1, 2, 3, 4 and 6 hours from instillation. The effect on the intraocular pressure was shown as the difference from pre-instillation (ΔIOP, mmHg, mean±standard error). The following Tables 14 and 15 show the results of Control Compounds A and B used as 1% suspensions which are the same as in the pharmacological test (1).
The animals were pretreated as mentioned above, and among them animals whose intraocular pressure was stable before instillation were selected, and these animals were divided to every 5 to 8 animal in each one group. Every two group was used for each of the test compounds. The test compound was administered unilaterally to the eye of the test group rabbit and the intraocular pressure was measured. The vehicle was administered unilaterally to the eye of the control group rabbit and the intraocular pressure was measured. As mentioned above, the measurement of intraocular pressure was carried out before instillation and after 0.5, 1, 2, 3, 4 and 6 hours from instillation, and the effect on the intraocular pressure was shown as the difference from pre-instillation (ΔIOP, mmHg, mean±standard error).

[2] = molecular target: T1, adenosine A2a receptor (Human) (Homo sapiens, UniProt P29274); test: c-AMP generating action in cell expressing adenosine A2a receptor; format: cell-based; conditions: HEK293 cell expressing human A2a; 100% = c-AMP caused by 1 μM CGS-21680; read-out: A2a Agonistic Action (EC50)
T1 construct: host or cells: HEK293
Protocol: (1) c-AMP Generating Action in Cell Expressing Adenosine A2a Receptor
The test was carried out as mentioned below with reference to the method disclosed in the reference (Klotz k. N. et al., Naunyn-Schmiedeberg's Arch. Pharmacol., (1998) 357, 1-9; Shryock J. C. et al., Molecular Pharmacology, (1998) 53, 886-893).
As to the cell, HEK293 cell expressing adenosine A2a receptor (Human) (PerkinElmer Life Sciences, Code No. RBHA2AC) was used.
As to the culture medium, Dulbecco's modified Eagles medium (DMEM) including 10% FBS (Fetal bovine serum) and 1 mM of sodium pyruvate was used.
The cell was placed on 96 well plate (1×10^5/well), and cultured overnight. After removing off the supernatant, to each well, 0.1 ml of DMEM (without FBS) containing 20 mM HEPES, 0.1 mM of IBMX (3-isobutyl-1-methylxanthine) and 2 unit/mL adenosine deaminase was added, and they were incubated at 37° C. for 30 minutes. To each well, 0.1 ml of the culture medium including the DMSO solution of the test compound in an appropriate concentration was added and they were incubated for additional 30 minutes. After removing off the supernatant, the cytolytic solution was added to quench the reaction. The amount of c-AMP in each well was measured by using the c-AMP enzyme immunoassay (EIA) system (Amersham Biosciences, Code No. RPN225).
The same assay was repeated using CGS-21680 (2-p-carboxyethyl)phenethylamino-5′-N-ethylcarboxamidoadenosine hydrochloride, (Sigma, code C141) as reference compound. The amount of resultant c-AMP in the medium, caused by 1 μM of reference compound, was defined to be 100%. A concentration of assayed compound in the medium, producing 50% c-AMP amounts, was calculated to be EC50 value.

[3] = 0.03% ophthalmic solution, rabbit, instillation, 0.5 hr after instillation, difference from pre-instillation
[4] = 0.03% ophthalmic solution, rabbit, instillation, 1 hr after instillation, difference from pre-instillation
[5] = 0.03% ophthalmic solution, rabbit, instillation, 2 hr after instillation, difference from pre-instillation
[6] = 0.03% ophthalmic solution, rabbit, instillation, 3 hr after instillation, difference from pre-instillation
[7] = 0.03% ophthalmic solution, rabbit, instillation, 4 hr after instillation, difference from pre-instillation
[8] = 0.03% ophthalmic solution, rabbit, instillation, 6 hr after instillation, difference from pre-instillation

T1 sequence (P29274 whole entry): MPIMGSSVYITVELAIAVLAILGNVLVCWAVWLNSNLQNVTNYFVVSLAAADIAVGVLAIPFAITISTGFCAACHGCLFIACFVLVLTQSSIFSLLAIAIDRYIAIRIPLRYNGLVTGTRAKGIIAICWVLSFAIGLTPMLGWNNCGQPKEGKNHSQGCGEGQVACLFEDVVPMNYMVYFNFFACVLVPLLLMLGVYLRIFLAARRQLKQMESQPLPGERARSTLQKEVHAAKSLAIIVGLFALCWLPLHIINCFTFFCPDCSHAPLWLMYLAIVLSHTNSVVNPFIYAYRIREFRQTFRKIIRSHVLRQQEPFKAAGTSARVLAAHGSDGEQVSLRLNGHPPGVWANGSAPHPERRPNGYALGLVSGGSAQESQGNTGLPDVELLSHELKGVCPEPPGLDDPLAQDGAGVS

| SMILES | ΔIOP (mmHg) [1, 3] [mmHg] | ΔIOP (mmHg) [1, 4] [mmHg] | ΔIOP (mmHg) [1, 5] [mmHg] | ΔIOP (mmHg) [1, 6] [mmHg] | ΔIOP (mmHg) [1, 7] [mmHg] | ΔIOP (mmHg) [1, 8] [mmHg] | EC50 [2] [nM] | other results |
| --- | --- | --- | --- | --- | --- | --- | --- | --- |
| CC(=O)Nc1ccc(-c2nc(SCc3cccc(CCC(=O)N(C)CC(C)N(C)C)n3)nc(N)c2C#N)cc1.Cl (centres unmarked) [Example 64, 3-{6-[4-(4-acetylaminophenyl)-6-amino-5-cyanopyrimidin-2-ylsulfanylmethyl]pyridin-2-yl}-N-(2-dimethylaminopropyl)-N-methylpropionamide hydrochloride] | −2.7 ± 0.7 | −4.9 ± 0.5 | −3.8 ± 0.8 | −3.2 ± 0.9 | −4.0 ± 0.7 | −1.8 ± 0.4 | 4.3 | – |
| CC(=O)Nc1ccc(-c2nc(SCc3cccc(CCC(=O)N4CCN(CCN5CCOCC5)CC4)n3)nc(N)c2C#N)cc1.Cl [Example 78, N-{4-[6-amino-5-cyano-2-(6-{3-[4-(2-morpholin-4-ylethyl)piperazin-1-yl]-3-oxopropyl}pyridin-2-ylmethylsulfanyl)pyrimidin-4-yl]phenyl}acetamide hydrochloride] | 0.6 ± 0.5 | −3.3 ± 0.4 | −4.4 ± 0.6 | −4.3 ± 0.9 | −5.4 ± 0.7 | −3.2 ± 0.9 | 6 | – |
| CCN(CC)CCNC(=O)CCc1cccc(CSc2nc(N)c(C#N)c(-c3ccc(NC(C)=O)cc3)n2)n1.Cl [Example 66, 3-{6-[4-(4-acetylaminophenyl)-6-amino-5-cyanopyrimidin-2-ylsulfanylmethyl]pyridin-2-yl}-N-(2-diethylaminoethyl)propionamide hydrochloride salt] | −1.3 ± 0.9 | −4.0 ± 0.6 | −5.5 ± 0.7 | −5.0 ± 0.5 | −3.7 ± 0.5 | −1.8 ± 0.5 | 5.2 | – |
| CC(=O)Nc1ccc(-c2nc(SCc3cccc(CCC(=O)N(C)C4CCN(C)CC4)n3)nc(N)c2C#N)cc1.Cl [Example 67, 3-{6-[4-(4-acetylaminophenyl)-6-amino-5-cyanopyrimidin-2-ylsulfanylmethyl]pyridin-2-yl}-N-methyl-N-(1-methylpiperidin-4-yl)propionamide hydrochloride] | −1.1 ± 1.0 | −5.3 ± 0.7 | −4.6 ± 0.7 | −4.6 ± 0.9 | −4.2 ± 0.7 | −2.0 ± 0.7 | 6.8 | – |
| CCN1CCN(CC2CN(C(=O)CCc3cccc(CSc4nc(N)c(C#N)c(-c5ccc(NC(C)=O)cc5)n4)n3)CCO2)CC1.Cl (centres unmarked) [Example 72, N-{4-[6-amino-5-cyano-2-(6-{3-[2-(4-ethyl-piperazin-1-ylmethyl)morpholin-4-yl]-3-oxopropyl}pyridin-2-ylmethylsulfanyl)pyrimidin-4-yl]phenyl}acetamide hydrochloride] | −1.9 ± 0.6 | −5.3 ± 0.6 | −4.7 ± 0.6 | −5.0 ± 0.7 | −4.0 ± 1.0 | −1.9 ± 0.9 | 13.6 | – |
| CC(=O)Nc1ccc(-c2nc(SCc3cccc(CCC(=O)NCCN(C)C)n3)nc(N)c2C#N)cc1.Cl [Example 61, 3-{6-[4-(4-acetylaminophenyl)-6-amino-5-cyanopyrimidin-2-ylsulfanylmethyl]pyridin-2-yl}-N-(2-dimethylaminoethyl)-propionamide hydrochloride] | −0.5 ± 0.4 | −4.2 ± 0.6 | −4.5 ± 0.7 | −4.8 ± 0.7 | −4.4 ± 0.7 | −1.2 ± 0.8 | 3.4 | – |
| CC(=O)Nc1ccc(-c2nc(SCc3cccc(CN4CCN(C(=O)c5ccccc5)CC4)n3)nc(N)c2C#N)cc1 [Example 19, N-(4-{6-amino-2-[6-(4-benzoylpiperazin-1-ylmethyl)pyridin-2-ylmethylsulfanyl]-5-cyanopyrimidin-4-yl}phenyl)acetamide] | – | – | – | – | – | – | 7.4 | – |
| CC(=O)Nc1ccc(-c2nc(SCc3cccc(CN4CCN(C(=O)OC(C)(C)C)CC4)n3)nc(N)c2C#N)cc1 [Example 17, t-butyl 4-{6-[4-(4-acetylaminophenyl)-6-amino-5-cyanopyrimidin-2-ylsulfanyl-methyl]-pyridin-2-ylmethyl}piperazine-1-carboxylate] | – | – | – | – | – | – | 6.8 | – |
| CCCC(=O)Nc1ccc(-c2nc(SCc3cccc(C)n3)nc(N)c2C#N)cc1 [Example 11, N-{4-[6-amino-5-cyano-2-(6-methylpyridin-2-ylmethylsulfanyl)pyrimidin-4-yl]phenyl}butylamide] | – | – | – | – | – | – | 395 | – |
| CC(=O)Nc1ccc(-c2nc(SCc3cccc(C)n3)nc(N)c2C#N)cc1 [Example 2, N-{4-[6-amino-5-cyano-2-(6-methylpyridin-2-ylmethylsulfanyl)pyrimidin-4-yl]phenyl}acetamide] | – | – | – | – | – | – | 11.9 | ΔIOP (mmHg) ([1]; 1% suspended ophthalmic preparation, test group, 0.5 hr): 1.1 ± 0.6 mmHg; ΔIOP (mmHg) ([1]; 1% suspended ophthalmic preparation, test group, 1 hr): −3.1 ± 0.6 mmHg; ΔIOP (mmHg) ([1]; 1% suspended ophthalmic preparation, test group, 2 hr): −4.2 ± 0.7 mmHg; ΔIOP (mmHg) ([1]; 1% suspended ophthalmic preparation, test group, 3 hr): −4.0 ± 0.9 mmHg; ΔIOP (mmHg) ([1]; 1% suspended ophthalmic preparation, test group, 4 hr): −2.0 ± 0.4 mmHg; ΔIOP (mmHg) ([1]; 1% suspended ophthalmic preparation, test group, 6 hr): 0.4 ± 0.9 mmHg |
| CC(=O)Nc1ccc(-c2nc(SCc3cccc(CN4CCN(C(=O)CN5CCN(C)CC5)CC4)n3)nc(N)c2C#N)cc1 [Example 21, N-{4-[6-amino-5-cyano-2-(6-{4-[2-(4-methylpiperazin-1-yl)acetyl]piperazin-1-ylmethyl}pyridin-2-ylmethylsulfanyl)pyrimidin-4-yl]phenyl}acetamide hydrochloride] | – | – | – | – | – | – | 10.6 | – |
| CC(=O)Nc1ccc(-c2nc(SCc3cccc(CCCCC(=O)N4CCN(C)CC4)n3)nc(N)c2C#N)cc1 [Example 54, N-[4-(6-amino-5-cyano-2-{6-[5-(4-methylpiperazin-1-yl)-5-oxopentyl]pyridin-2-ylmethyl-sulfanyl}pyrimidin-4-yl)phenyl]acetamide] | – | – | – | – | – | – | 5.3 | – |
| CC(=O)Nc1ccc(-c2nc(SCc3cccc(C=CC(=O)N4CCN(C)CC4)n3)nc(N)c2C#N)cc1 [Example 48, N-[4-(6-amino-5-cyano-2-{6-[3-(4-methylpiperazin-1-yl)-3-oxopropenyl]pyridin-2-ylmethylsulfanyl}pyrimidin-4-yl)-phenyl]acetamide] | – | – | – | – | – | – | 29.1 | – |
| C=CC(=O)Nc1ccc(-c2nc(SCc3cccc(C)n3)nc(N)c2C#N)cc1 [Example 10, N-{4-[6-amino-5-cyano-2-(6-methylpyridin-2-ylmethylsulfanyl)pyrimidin-4-yl]phenyl}acrylamide] | – | – | – | – | – | – | 19.1 | – |
